Results: patent US20120165331A1, “Di/tri-aza-spiro-C9-C11alkanes” (priority 2010, published 2012)

How the values were obtained:
human orexin 2 receptor = target: T1, human orexin 2 receptor (Homo sapiens, UniProt O43614); assay: Calcium accumulation in cells (FLIPR), antagonism of orexin A, human orexin 2 receptor; type: cell-based; conditions: for inhibition at 10 µM: measured at a concentration of 10 μM of compound, read-out: FLIPR hOx2R % inhibition; for Ki: calcium accumulation, antagonism of orexin A, Cheng-Prusoff corrected, read-out: FLIPR hOx2R Ki
T1 construct: expressed in transfected cells
T1 sequence (O43614 1-444): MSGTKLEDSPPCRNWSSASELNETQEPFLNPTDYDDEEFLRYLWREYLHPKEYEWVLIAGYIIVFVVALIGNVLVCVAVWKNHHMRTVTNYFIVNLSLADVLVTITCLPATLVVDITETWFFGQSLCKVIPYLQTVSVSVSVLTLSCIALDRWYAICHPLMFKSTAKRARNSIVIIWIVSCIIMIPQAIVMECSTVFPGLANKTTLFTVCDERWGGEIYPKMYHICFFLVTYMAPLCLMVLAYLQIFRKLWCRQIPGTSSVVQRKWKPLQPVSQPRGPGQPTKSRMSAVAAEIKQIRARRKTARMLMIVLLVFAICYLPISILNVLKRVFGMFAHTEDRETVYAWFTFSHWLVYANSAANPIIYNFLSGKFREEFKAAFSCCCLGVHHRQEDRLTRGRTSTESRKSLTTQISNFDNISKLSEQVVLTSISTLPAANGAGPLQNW

human orexin 1 receptor = target: T2, human orexin 1 receptor (Homo sapiens, UniProt O43613); assay: Calcium accumulation in cells (FLIPR), antagonism of orexin A, human orexin 1 receptor; type: cell-based; conditions: for inhibition at 10 µM: measured at a concentration of 10 μM of compound, read-out: FLIPR hOx1R % inhibition; for Ki: calcium accumulation, antagonism of orexin A, Cheng-Prusoff corrected, read-out: FLIPR hOx1R Ki
T2 construct: expressed in transfected cells
T2 sequence (O43613 1-425): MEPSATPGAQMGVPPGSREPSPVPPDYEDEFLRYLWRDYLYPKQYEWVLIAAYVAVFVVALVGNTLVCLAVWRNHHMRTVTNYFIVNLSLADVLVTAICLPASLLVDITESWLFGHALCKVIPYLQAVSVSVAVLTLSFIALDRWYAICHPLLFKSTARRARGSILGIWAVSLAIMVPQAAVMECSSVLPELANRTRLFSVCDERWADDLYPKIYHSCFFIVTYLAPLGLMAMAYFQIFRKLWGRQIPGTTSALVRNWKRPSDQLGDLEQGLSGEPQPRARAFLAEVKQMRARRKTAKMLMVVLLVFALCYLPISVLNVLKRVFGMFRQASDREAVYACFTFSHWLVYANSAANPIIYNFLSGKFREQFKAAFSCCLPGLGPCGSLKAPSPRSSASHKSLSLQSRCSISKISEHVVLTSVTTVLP

Structure (SMILES) | inhibition at 10 µM (human orexin 2 receptor) | inhibition at 10 µM (human orexin 1 receptor) | Ki (human orexin 2 receptor) | Ki (human orexin 1 receptor)
COc1cc(C)nc(N2CCC3(CCN(Cc4nn(C)nc4Br)C3=O)C2)n1 (stereo not shown) [Example 5.46, 2-((5-bromo-2-methyl-2H-1,2,3-triazol-4-yl)methyl)-7-(4-methoxy-6-methylpyrimidin-2-yl)-2,7-diazaspiro[4.4]nonan-1-one] | 21% | < 10% | – | –
O=C1N(Cc2c[nH]c3ccccc23)CCC12CCCN(c1cnc3ccccc3n1)C2 (stereo not shown) [Example 6.1] | – | – | 639 nM | 1130 nM
COc1ccnc(N2CCC3(CCCN(Cc4c[nH]c5ncccc45)C3=O)C2)n1 (stereo not shown) [Example 7.2, 7-((1H-Pyrrolo[2,3-b]pyridin-3-yl)methyl)-2-(4-methoxypyrimidin-2-yl)-2,7-diazaspiro[4.5]decan-6-one] | – | – | 703 nM | 3200 nM
COc1ccnc(N2CCC3(CCCN(Cc4n[nH]c5ccccc45)C3=O)C2)n1 (stereo not shown) [Example 7.3, 7-((1H-Indazol-3-yl)methyl)-2-(4-methoxypyrimidin-2-yl)-2,7-diazaspiro[4.5]decan-6-one] | – | – | 234 nM | 1430 nM
COc1ccnc(N2CCC3(CCCN(Cc4ccccc4-c4nc(C)no4)C3=O)C2)n1 (stereo not shown) [Example 7.5, 2-(4-Methoxypyrimidin-2-yl)-7-(2-(3-methyl-1,2,4-oxadiazol-5-yl)benzyl)-2,7-diazaspiro[4.5]decan-6-one] | – | – | 221 nM | 981 nM
COc1cccc(-c2nn(C)nc2CN2CCCC3(CCN(c4nccc(OC)n4)C3)C2=O)c1 (stereo not shown) [Example 7.7, 7-((5-(3-Methoxyphenyl)-2-methyl-2H-1,2,3-triazol-4-yl)methyl)-2-(4-methoxypyrimidin-2-yl)-2,7-diazaspiro[4.5]decan-6-one] | – | – | 366 nM | 537 nM
O=C1N(Cc2c[nH]c3ccccc23)CCCC12CCN(c1nc3ccccc3o1)C2 (stereo not shown) [Example 7.8, 7-((1H-Indol-3-yl)methyl)-2-(benzo[d]oxazol-2-yl)-2,7-diazaspiro[4.5]decan-6-one] | – | – | 168 nM | 98 nM
COc1cc(C)nc(N2CCC3(CCCN(Cc4c[nH]c5ncccc45)C3=O)C2)n1 (stereo not shown) [Example 7.13, 7-((1H-pyrrolo[2,3-b]pyridin-3-yl)methyl)-2-(4-methoxy-6-methylpyrimidin-2-yl)-2,7-diazaspiro[4.5]decan-6-one] | – | – | 115 nM | 299 nM
Cc1cncc(N2CCC3(CCC(=O)N3Cc3cccc4[nH]ccc34)CC2)n1 [Example 8.2, 1-((1H-Indol-4-yl)methyl)-8-(6-methylpyrazin-2-yl)-1,8-diazaspiro[4.5]decan-2-one] | – | 12% | 133 nM | –
O=C1COCC2(CCN(c3cnc4ccccc4n3)CC2)N1Cc1c[nH]c2ccccc12 [Example 8.8, 1-((1H-Indol-3-yl)methyl)-9-(quinoxalin-2-yl)-4-oxa-1,9-diazaspiro[5.5]undecan-2-one] | – | 33% | 635 nM | –
Cn1ccc2c(CN3C(=O)COCC34CCN(c3cnc5ccccc5n3)CC4)cccc21 [Example 8.10, 1-((1-Methyl-1H-indol-4-yl)methyl)-9-(quinoxalin-2-yl)-4-oxa-1,9-diazaspiro[5.5]undecan-2-one] | – | – | 202 nM | 265 nM
O=C1COCC2(CCN(c3cnc4ccccc4n3)CC2)N1Cc1cccc(-c2cccnc2)c1 [Example 8.12, 1-(3-(Pyridin-3-yl)benzyl)-9-(quinoxalin-2-yl)-4-oxa-1,9-diazaspiro[5.5]undecan-2-one] | 30% | – | – | 232 nM
Cc1ccc(C)c(CN2C(=O)COCC23CCN(c2cncc(C)n2)CC3)c1 [Example 8.13, 1-(2,5-Dimethylbenzyl)-9-(6-methylpyrazin-2-yl)-4-oxa-1,9-diazaspiro[5.5]undecan-2-one] | – | < 10% | 405 nM | –
Cc1cncc(N2CCC3(CC2)COCC(=O)N3Cc2cccc3[nH]ccc23)n1 [Example 8.14, 1-((1H-Indol-4-yl)methyl)-9-(6-methylpyrazin-2-yl)-4-oxa-1,9-diazaspiro[5.5]undecan-2-one] | – | 14% | 506 nM | –
N#Cc1ccnc(N2CCC3(CC2)COCC(=O)N3Cc2cccc3[nH]ccc23)c1 [Example 8.16, 2-(1-((1H-Indol-4-yl)methyl)-2-oxo-4-oxa-1,9-diazaspiro[5.5]undecan-9-yl)isonicotinonitrile] | – | < 10% | 1020 nM | –
N#Cc1cccc(N2CCC3(CC2)COCC(=O)N3Cc2cccc3[nH]ccc23)n1 [Example 8.17, 6-(1-((1H-Indol-4-yl)methyl)-2-oxo-4-oxa-1,9-diazaspiro[5.5]undecan-9-yl)picolinonitrile] | – | 40% | 584 nM | –
N#Cc1ccnc(N2CCC3(CC2)COCC(=O)N3Cc2cccc3[nH]ccc23)n1 [Example 8.18, 2-(1-((1H-Indol-4-yl)methyl)-2-oxo-4-oxa-1,9-diazaspiro[5.5]undecan-9-yl)pyrimidine-4-carbonitrile] | – | 25% | 1010 nM | –
Cc1ccnc(N2CCC3(CC2)COCC(=O)N3Cc2cccc3[nH]ccc23)n1 [Example 8.19, 1-((1H-Indol-4-yl)methyl)-9-(4-methylpyrimidin-2-yl)-4-oxa-1,9-diazaspiro[5.5]undecan-2-one] | – | 28% | 697 nM | –
O=C1OCC2(CCN(c3cnc4ccccc4n3)CC2)N1Cc1c[nH]c2ccccc12 [Example 8.21] | – | 33% | 480 nM | –
Cc1cncc(N2CCC3(CC2)COC(=O)N3Cc2c[nH]c3ccccc23)n1 [Example 8.23, 1-((1H-Indol-3-yl)methyl)-8-(6-methylpyrazin-2-yl)-3-oxa-1,8-diazaspiro[4.5]decan-2-one] | 20% | < 10% | – | –
Cc1cc(C)nc(N2CCC3(CC2)COC(=O)N3Cc2c[nH]c3ccccc23)n1 [Example 8.24, 1-((1H-Indol-3-yl)methyl)-8-(4,6-dimethylpyrimidin-2-yl)-3-oxa-1,8-diazaspiro[4.5]decan-2-one] | – | 21% | 448 nM | –
Cc1cncc(N2CCC3(CC2)COC(=O)N3Cc2cccc3[nH]ccc23)n1 [Example 8.25, 1-((1H-Indol-4-yl)methyl)-8-(6-methylpyrazin-2-yl)-3-oxa-1,8-diazaspiro[4.5]decan-2-one] | – | < 10% | 675 nM | –
O=C1CCC2(CCN(c3cnc4ccccc4n3)C2)N1Cc1cccc2[nH]ccc12 (stereo not shown) [Example 9.1] | – | – | 1380 nM | 666 nM
